This note sets out measurements from patent US20200291018A1, “TAM KINASE INHIBITORS” (SYROS PHARMACEUTICALS, INC., priority 2017, published 2020).

The target in one experiment is T1, AXL (Homo sapiens, UniProt P30530).
T1 sequence (P30530 26-894): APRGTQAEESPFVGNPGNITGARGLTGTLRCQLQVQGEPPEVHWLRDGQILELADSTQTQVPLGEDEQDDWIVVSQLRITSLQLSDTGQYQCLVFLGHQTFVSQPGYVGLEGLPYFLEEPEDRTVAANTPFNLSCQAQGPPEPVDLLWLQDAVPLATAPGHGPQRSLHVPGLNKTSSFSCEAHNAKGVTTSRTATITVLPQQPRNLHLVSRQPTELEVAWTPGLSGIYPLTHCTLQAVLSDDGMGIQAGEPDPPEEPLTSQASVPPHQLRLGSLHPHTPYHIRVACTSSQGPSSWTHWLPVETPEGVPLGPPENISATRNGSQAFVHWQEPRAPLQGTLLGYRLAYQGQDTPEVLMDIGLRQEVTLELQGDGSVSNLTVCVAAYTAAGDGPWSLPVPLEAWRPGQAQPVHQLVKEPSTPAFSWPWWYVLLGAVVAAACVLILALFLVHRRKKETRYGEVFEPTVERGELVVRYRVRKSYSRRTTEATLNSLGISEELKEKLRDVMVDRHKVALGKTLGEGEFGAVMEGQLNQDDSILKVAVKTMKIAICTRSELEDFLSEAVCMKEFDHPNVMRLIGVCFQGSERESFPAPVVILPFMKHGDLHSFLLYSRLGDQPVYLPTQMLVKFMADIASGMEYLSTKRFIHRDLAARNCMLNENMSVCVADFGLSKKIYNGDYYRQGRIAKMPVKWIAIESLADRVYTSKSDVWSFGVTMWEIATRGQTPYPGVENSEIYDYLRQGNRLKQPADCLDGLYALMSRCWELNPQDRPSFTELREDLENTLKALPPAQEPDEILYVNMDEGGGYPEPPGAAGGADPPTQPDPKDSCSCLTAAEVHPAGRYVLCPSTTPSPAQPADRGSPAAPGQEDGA
In words: TR-FRET kinase activity assay, AXL. It counts as biochemical. Conditions: ATP at Km, 60 minutes. In a few lines:
(§1)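 Enzyme, fluorescent-labeled peptide substrate and compound were mixed, then ATP was added at each enzyme's Km. Buffer was 50 mM HEPES pH 7.5, 10 mM MgCl2, 1 mM EGTA, 0.01% Brij 35, 1 mM DTT at RT. After 60 min, EDTA quench and 30 min with Eu-anti-phosphotyrosine-site antibody; TR-FRET read gave IC50.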

The target in another experiment is T2, TYRO3 (Homo sapiens, UniProt Q06418).
T2 sequence (Q06418 41-890): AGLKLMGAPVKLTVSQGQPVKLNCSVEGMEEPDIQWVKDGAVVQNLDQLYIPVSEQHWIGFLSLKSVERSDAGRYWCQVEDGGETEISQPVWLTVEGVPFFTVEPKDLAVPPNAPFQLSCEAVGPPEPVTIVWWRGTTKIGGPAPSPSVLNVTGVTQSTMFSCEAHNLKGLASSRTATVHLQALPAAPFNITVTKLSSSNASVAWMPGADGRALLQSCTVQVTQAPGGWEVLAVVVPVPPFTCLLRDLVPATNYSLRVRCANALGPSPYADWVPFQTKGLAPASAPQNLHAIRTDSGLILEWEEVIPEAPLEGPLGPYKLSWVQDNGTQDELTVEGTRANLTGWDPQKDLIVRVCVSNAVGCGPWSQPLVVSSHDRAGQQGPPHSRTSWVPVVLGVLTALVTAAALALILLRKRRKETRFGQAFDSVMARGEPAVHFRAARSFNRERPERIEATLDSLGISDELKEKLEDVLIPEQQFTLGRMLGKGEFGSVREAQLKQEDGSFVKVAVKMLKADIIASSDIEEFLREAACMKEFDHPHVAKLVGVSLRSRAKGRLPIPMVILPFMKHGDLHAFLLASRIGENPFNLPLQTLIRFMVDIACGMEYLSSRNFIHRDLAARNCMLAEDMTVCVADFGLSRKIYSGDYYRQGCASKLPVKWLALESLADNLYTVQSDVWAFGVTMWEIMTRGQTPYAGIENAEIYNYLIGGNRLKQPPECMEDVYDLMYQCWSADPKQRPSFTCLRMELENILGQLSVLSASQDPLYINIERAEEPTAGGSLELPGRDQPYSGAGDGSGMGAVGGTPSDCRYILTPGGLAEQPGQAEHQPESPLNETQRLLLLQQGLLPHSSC
Kind of experiment: TR-FRET kinase activity assay, TYRO3. Particulars: ATP at Km, 60 minutes. It counts as biochemical. In a few lines:
as §1

With `C[C@@H](CCF)Nc1ncc2c(OC3CCOCC3)ncc([C@H]3CC[C@H](O)CC3)c2n1` [Compound 311], the IC50 at AXL was 0.1 to 1 µM; on TYRO3, not above 0.1 µM.
With `COCC[C@H](C)Nc1ncc2c(OC3CCOCC3)ncc([C@H]3CC[C@H](O)CC3)c2n1` [Compound 312], the values for the IC50 on AXL and at TYRO3 were 1 to 10 µM and 0.1 to 1 µM, respectively.
In the case of `CC(C)Nc1ncc2c(OC3CCOCC3)ncc(-c3cccc(S(C)(=O)=O)c3)c2n1` [Compound 313], the IC50 against AXL and against TYRO3 was 0.1 to 1 µM each time.
As for `COC[C@H](C)Nc1ncc2c(OC3CCOCC3)ncc(-c3cnn([C@@H]4CCN(C)C4)c3)c2n1` [Compound 314], the IC50 at AXL lay in the range of 1 to 10 µM; against TYRO3 it was 0.1 to 1 µM.
With `COC[C@H](C)Nc1ncc2c(OC3CCOCC3)ncc([C@H]3CC[C@H](NC(C)=O)CC3)c2n1` [Compound 315], the IC50 was in the range of 1 to 10 µM at AXL and 0.1 to 1 µM against TYRO3.
Taken in the same sequence, the figures for `COC[C@H](C)Nc1ncc2c(OC3CCOCC3)ncc([C@H]3CC[C@H](NS(C)(=O)=O)CC3)c2n1` [Compound 316] were 1 to 10 µM and not above 0.1 µM.
Taken in the same sequence, the figures for `CNS(=O)(=O)N[C@H]1CC[C@H](c2cnc(OC3CCOCC3)c3cnc(N[C@@H](C)COC)nc32)CC1` [Compound 317] were 1 to 10 µM and not above 0.1 µM.
Turning to `CC(C)Nc1ncc2c(OC3CCOCC3)ncc(-c3cccc(S(=O)(=O)C(C)C)c3)c2n1` [Compound 318], the IC50 on AXL and against TYRO3 was 0.1 to 1 µM throughout.
As to `COC[C@H](C)Nc1ncc2c(OC3CCOCC3)ncc(-c3ccc(CC#N)cc3)c2n1` [Compound 319], the IC50 at AXL and against TYRO3 was 0.1 to 1 µM each time.
Turning to `COC[C@H](C)Nc1ncc2c(OC3CCOCC3)ncc(-c3cccc(C#N)c3)c2n1` [Compound 320], the IC50 at AXL is 1 to 10 µM; against TYRO3, 0.1 to 1 µM.
Taken in the same sequence, the figures for `CC[C@H](C)Nc1ncc2c(O[C@H]3CC[C@H](N)CC3)ncc([C@H]3CC[C@H](O)CC3)c2n1` [Compound 321] were not above 0.1 µM and not above 0.1 µM.
Taken in the same sequence, the figures for `CN(C)S(=O)(=O)c1cccc(-c2cnc(OC3CCOCC3)c3cnc(NC4(C)CC4)nc23)c1` [Compound 322] were 0.1 to 1 µM and 0.1 to 1 µM.
Taken in the same sequence, the figures for `CN1C[C@H](Nc2ncc3c(OC4CCOCC4)ncc([C@H]4CC[C@H](O)CC4)c3n2)CC1=O` [Compound 323] were 1 to 10 µM and 1 to 10 µM.
As for `CN1C[C@@H](Nc2ncc3c(OC4CCOCC4)ncc([C@H]4CC[C@H](O)CC4)c3n2)CC1=O` [Compound 324], the IC50 against AXL and on TYRO3 was 1 to 10 µM each time.
Regarding `COC[C@H](C)Nc1ncc2c(OC3CCOCC3)ncc(-c3cccc(C(N)=O)c3)c2n1` [Compound 325], the IC50 on AXL and against TYRO3 was 1 to 10 µM throughout.
On to `COC[C@H](C)Nc1ncc2c(OC3CCOCC3)ncc([C@H]3CCCNC3)c2n1` [Compound 326], for which the IC50 against AXL and at TYRO3 was 0.1 to 1 µM in each case.
As to `COC[C@H](C)Nc1ncc2c(OC3CCOCC3)ncc([C@@H]3CCCNC3)c2n1` [Compound 327], the IC50 on AXL and against TYRO3 was 1 to 10 µM throughout.
On to `COC[C@H](C)Nc1ncc2c(OC3CCOCC3)ncc(-c3cccc(S(N)(=O)=O)c3)c2n1` [Compound 328], for which the IC50 was in the range of 1 to 10 µM against AXL and 0.1 to 1 µM against TYRO3.
In the same order, the values of `COC[C@H](C)Nc1ncc2c(OC3CCOCC3)ncc([C@H]3CC[C@@](O)(C(F)(F)F)CC3)c2n1` [Compound 329] are 0.1 to 1 µM and 0.1 to 1 µM.
In the same order, the values of `COC[C@H](C)Nc1ncc2c(OC3CCOCC3)ncc([C@H]3CC[C@](O)(C(F)(F)F)CC3)c2n1` [Compound 330] are 1 to 10 µM and 0.1 to 1 µM.
In the case of `N#Cc1ccc(Nc2ncc3c(OC4CCNCC4)ncc([C@H]4CC[C@H](O)CC4)c3n2)cc1` [Compound 331], the IC50 on AXL and against TYRO3 was not above 0.1 µM in each case.
With `COC[C@H](C)Nc1ncc2c(OC3CCOCC3)ncc([C@H]3CCCN(C)C3)c2n1` [Compound 332], the IC50 on AXL fell in the range of 1 to 10 µM; on TYRO3, 0.1 to 1 µM.
`COC[C@H](C)Nc1ncc2c(OC3CCOCC3)ncc([C@@H]3CCCN(C)C3)c2n1` [Compound 333]: the IC50 at AXL and on TYRO3 was 1 to 10 µM throughout.
For the compound `COC[C@H](C)Nc1ncc2c(OC3CCOCC3)ncc(-c3cnn([C@H]4CCN(C)C4)c3)c2n1` [Compound 334], the IC50 is 1 to 10 µM against AXL and 0.1 to 1 µM at TYRO3.
Taken in the same sequence, the figures for `COC[C@H](C)Nc1ncc2c(OC3CCOCC3)ncc(-c3ccc(CO)cc3)c2n1` [Compound 335] were 1 to 10 µM and 0.1 to 1 µM.
Turning to `O[C@H]1CC[C@H](c2cnc(OC3CCOCC3)c3cnc(N[C@H]4CCC(F)(F)C4)nc32)CC1` [Compound 336], the IC50 against AXL and against TYRO3 was 0.1 to 1 µM in each case.
In the case of `COC[C@H](C)Nc1ncc2c(OC3CCOCC3)ncc(-c3ccc(N)nc3)c2n1` [Compound 337], the IC50 on AXL was in the range of 1 to 10 µM; on TYRO3 it was 0.1 to 1 µM.
On to `C[C@H](CC(F)(F)F)Nc1ncc2c(OC3CCOCC3)ncc([C@H]3CC[C@H](O)CC3)c2n1` [Compound 338], for which the IC50 fell in the range of 1 to 10 µM against AXL and 0.1 to 1 µM against TYRO3.
Taken in the same sequence, the figures for `CCC1(Nc2ncc3c(OC4CCOCC4)ncc([C@H]4CC[C@H](O)CC4)c3n2)CC1` [Compound 339] were 0.1 to 1 µM and 0.1 to 1 µM.
Taken in the same sequence, the figures for `CNC(=O)N[C@H]1CC[C@H](c2cnc(OC3CCOCC3)c3cnc(N[C@@H](C)COC)nc32)CC1` [Compound 340] were 1 to 10 µM and 0.1 to 1 µM.
In the same order, the values of `CNS(=O)(=O)N1CCC(c2cnc(OC3CCOCC3)c3cnc(N[C@@H](C)COC)nc23)CC1` [Compound 341] are 1 to 10 µM and 0.1 to 1 µM.
`COC[C@H](C)Nc1ncc2c(OC3CCOCC3)ncc(-c3ccnnc3)c2n1` [Compound 342]: the IC50 at AXL and against TYRO3 was 1 to 10 µM each time.
As for `COC[C@H](C)Nc1ncc2c(OC3C[C@H]4CC[C@@H](C3)N4C)ncc([C@H]3CC[C@H](O)CC3)c2n1` (stereo partly drawn) [Compound 343], the IC50 was 0.1 to 1 µM at AXL and not above 0.1 µM against TYRO3.
In the same order, the values of `COC[C@H](C)Nc1ncc2c(OC3CCN(c4ncccn4)CC3)ncc([C@H]3CC[C@H](O)CC3)c2n1` [Compound 344] are 0.1 to 1 µM and 0.1 to 1 µM.
Taken in the same sequence, the figures for `CNC(=O)N1CCC(c2cnc(OC3CCOCC3)c3cnc(N[C@@H](C)COC)nc23)CC1` [Compound 345] were 1 to 10 µM and 1 to 10 µM.
In the same order, the values of `COC[C@H](C)Nc1ncc2c(OC3CCOCC3)ncc(C3CCCCN3)c2n1` (stereo partly drawn) [Compound 346] are 1 to 10 µM and 1 to 10 µM.
In the case of `COC[C@H](C)Nc1ncc2c(OC3CCOCC3)ncc(-c3cn[nH]c3)c2n1` [Compound 347], the IC50 was 1 to 10 µM at AXL and 0.1 to 1 µM against TYRO3.
In the same order, the values of `COC[C@H](C)Nc1ncc2c(C3CC3)ncc([C@H]3CC[C@H](O)CC3)c2n1` [Compound 349] are 0.1 to 1 µM and not above 0.1 µM.
In the same order, the values of `COC[C@H](C)Nc1ncc2c(OC3CCOCC3)ncc(C3CCCCN3C)c2n1` (stereo partly drawn) [Compound 350] are 1 to 10 µM and 1 to 10 µM.
